Data published in US12049450B2, “Pyridyloxy-carboxylate derivative and preparation method therefor, herbicidal composition, and use” (Qingdao Kingagroot Chemical Compound Co., Ltd., priority 2018, dated 2024).

What was measured:
Assay in all cases: Post-emergence test experiment (greenhouse pot, spray at 2-3 leaf stage)
Type in all cases: in vivo
Settings in all cases: 1000 g/ha; post-emergence spray at 2-3 leaf stage; assessed after 3 weeks; fresh weight inhibition rate
[1] = tested on: Echinochloa crusgalli
Source text: (§1) The activity level standard of harmful plants destruction (i. e. growth inhibition rate) is as follows: • Level 5: the growth inhibition rate is greater than 85%; • Level 4: the growth inhibition rate is equal to or greater than 60% and less than 85%; • Level 3: the growth inhibition rate is equal to or greater than 40% and less than 60%; • Level 2: the growth inhibition rate is equal to or greater than 20% and less than 40%; • Level 1: the growth inhibition rate is equal to or greater than 5% and less than 20%; • Level 0: the growth inhibition rate is less than 5%;
(§2) The above described growth inhibition rate is fresh weight inhibition rate.
(§3) Post-emergence test experiment: Monocotyledonous and dicotyledonous weed seeds and main crop seeds (i. e. wheat, corn, rice, soybean, cotton, oilseed, millet and sorghum.) were put into a plastic pot loaded with soil. Then covered with 0.5-2 cm soil, the seeds were allowed to grow in good greenhouse environment. The test plants were treated at 2-3 leaf stage 2 weeks after sowing. The test compounds of the invention were dissolved with acetone respectively, then added with tween-80, and using 1.5 liters per hectare of an emulsible concentrate of methyl oleate as a synergist, and diluted by certain amount of water to certain concentration. The solution was sprayed to the plants with a sprayer. Then the plants were cultured for 3 weeks in the greenhouse, and the experiment result of weed controlling effect after 3 weeks was listed in tables 3-4.

[2] = tested on: Abutilon theophrasti
Source text: as §1, §2, §3

[3] = tested on: Digitaria sanguinalis
Source text: as §1, §2, §3

[4] = tested on: Galium spurium
Source text: as §1, §2, §3

[5] = tested on: Monochoria vaginalis
Source text: as §1, §2, §3

Compound	Activity level (growth inhibition rate) Echinochloa crusgalli [1]	Activity level (growth inhibition rate) Abutilon theophrasti [2]	Activity level (growth inhibition rate) Digitaria sanguinalis [3]	Activity level (growth inhibition rate) Galium spurium [4]	Activity level (growth inhibition rate) Monochoria Vaginalis [5]
CC(Oc1nc(F)c(Cl)c(N)c1Cl)C(=O)OCc1cc(Br)cc(C=O)c1 (racemic) [Compound 111]	5 (Level 5: the growth inhibition rate is greater than 85%)	5 (Level 5: the growth inhibition rate is greater than 85%)	5 (Level 5: the growth inhibition rate is greater than 85%)	5 (Level 5: the growth inhibition rate is greater than 85%)	5 (Level 5: the growth inhibition rate is greater than 85%)
CC(Oc1nc(F)c(Cl)c(N)c1Cl)C(=O)OCc1cccc(Oc2ccccc2)c1 (racemic) [Compound 114]	5 (Level 5: the growth inhibition rate is greater than 85%)	5 (Level 5: the growth inhibition rate is greater than 85%)	5 (Level 5: the growth inhibition rate is greater than 85%)	5 (Level 5: the growth inhibition rate is greater than 85%)	5 (Level 5: the growth inhibition rate is greater than 85%)
CC(Oc1nc(F)c(Cl)c(N)c1Cl)C(=O)OCc1cccc(-c2cccnc2)c1 (racemic) [Compound 115]	5 (Level 5: the growth inhibition rate is greater than 85%)	5 (Level 5: the growth inhibition rate is greater than 85%)	5 (Level 5: the growth inhibition rate is greater than 85%)	5 (Level 5: the growth inhibition rate is greater than 85%)	5 (Level 5: the growth inhibition rate is greater than 85%)
CC(Oc1nc(F)c(Cl)c(N)c1Cl)C(=O)OCc1cccnc1 (racemic) [Compound 116]	5 (Level 5: the growth inhibition rate is greater than 85%)	5 (Level 5: the growth inhibition rate is greater than 85%)	5 (Level 5: the growth inhibition rate is greater than 85%)	5 (Level 5: the growth inhibition rate is greater than 85%)	5 (Level 5: the growth inhibition rate is greater than 85%)
CC(Oc1nc(F)c(Cl)c(N)c1Cl)C(=O)OCc1ccncc1 (racemic) [Compound 117]	5 (Level 5: the growth inhibition rate is greater than 85%)	5 (Level 5: the growth inhibition rate is greater than 85%)	5 (Level 5: the growth inhibition rate is greater than 85%)	5 (Level 5: the growth inhibition rate is greater than 85%)	5 (Level 5: the growth inhibition rate is greater than 85%)
Cc1cc(CSC(=O)C(C)Oc2nc(F)c(Cl)c(N)c2Cl)ccn1 (racemic) [Compound 118]	5 (Level 5: the growth inhibition rate is greater than 85%)	5 (Level 5: the growth inhibition rate is greater than 85%)	5 (Level 5: the growth inhibition rate is greater than 85%)	5 (Level 5: the growth inhibition rate is greater than 85%)	5 (Level 5: the growth inhibition rate is greater than 85%)
CC(Oc1nc(F)c(Cl)c(N)c1Cl)C(=O)SCCc1cnccc1Cl (racemic) [Compound 119]	5 (Level 5: the growth inhibition rate is greater than 85%)	5 (Level 5: the growth inhibition rate is greater than 85%)	5 (Level 5: the growth inhibition rate is greater than 85%)	5 (Level 5: the growth inhibition rate is greater than 85%)	5 (Level 5: the growth inhibition rate is greater than 85%)
Cc1nc(OC(C)C(=O)OCc2ccccc2)c(Cl)c(N)c1Cl (stereo not drawn) [Compound 5]	5 (Level 5: the growth inhibition rate is greater than 85%)	5 (Level 5: the growth inhibition rate is greater than 85%)	5 (Level 5: the growth inhibition rate is greater than 85%)	5 (Level 5: the growth inhibition rate is greater than 85%)	5 (Level 5: the growth inhibition rate is greater than 85%)
CC(Oc1nc(C(F)(F)F)c(Cl)c(N)c1Cl)C(=O)SCc1ccccc1 (stereo not drawn) [Compound 6]	5 (Level 5: the growth inhibition rate is greater than 85%)	5 (Level 5: the growth inhibition rate is greater than 85%)	5 (Level 5: the growth inhibition rate is greater than 85%)	5 (Level 5: the growth inhibition rate is greater than 85%)	5 (Level 5: the growth inhibition rate is greater than 85%)
CCc1c(OC(C)C(=O)SCc2ccccc2)nc(C(F)(F)F)c(CC)c1N (stereo not drawn) [Compound 8]	5 (Level 5: the growth inhibition rate is greater than 85%)	5 (Level 5: the growth inhibition rate is greater than 85%)	5 (Level 5: the growth inhibition rate is greater than 85%)	5 (Level 5: the growth inhibition rate is greater than 85%)	5 (Level 5: the growth inhibition rate is greater than 85%)
CC(Oc1ncc(C(C)C)c(N)c1Cl)C(=O)OCc1ccccc1 (stereo not drawn) [Compound 9]	5 (Level 5: the growth inhibition rate is greater than 85%)	5 (Level 5: the growth inhibition rate is greater than 85%)	5 (Level 5: the growth inhibition rate is greater than 85%)	5 (Level 5: the growth inhibition rate is greater than 85%)	5 (Level 5: the growth inhibition rate is greater than 85%)
CC(Oc1nc(Cl)c(C2CC2)c(N)c1Cl)C(=O)OCc1ccccc1 (stereo not drawn) [Compound 10]	5 (Level 5: the growth inhibition rate is greater than 85%)	5 (Level 5: the growth inhibition rate is greater than 85%)	5 (Level 5: the growth inhibition rate is greater than 85%)	5 (Level 5: the growth inhibition rate is greater than 85%)	5 (Level 5: the growth inhibition rate is greater than 85%)
CC(Oc1nc(C(F)(F)F)c(F)c(N)c1C(C)C)C(=O)OCc1ccccc1 (stereo not drawn) [Compound 11]	5 (Level 5: the growth inhibition rate is greater than 85%)	5 (Level 5: the growth inhibition rate is greater than 85%)	5 (Level 5: the growth inhibition rate is greater than 85%)	5 (Level 5: the growth inhibition rate is greater than 85%)	5 (Level 5: the growth inhibition rate is greater than 85%)
CC(Oc1ncc(I)c(N)c1I)C(=O)OCc1ccccc1 (stereo not drawn) [Compound 13]	5 (Level 5: the growth inhibition rate is greater than 85%)	5 (Level 5: the growth inhibition rate is greater than 85%)	5 (Level 5: the growth inhibition rate is greater than 85%)	5 (Level 5: the growth inhibition rate is greater than 85%)	5 (Level 5: the growth inhibition rate is greater than 85%)
CCCc1c(F)nc(OC(C)C(=O)SCc2ccccc2)c(C2CC2)c1N (stereo not drawn) [Compound 14]	5 (Level 5: the growth inhibition rate is greater than 85%)	5 (Level 5: the growth inhibition rate is greater than 85%)	5 (Level 5: the growth inhibition rate is greater than 85%)	5 (Level 5: the growth inhibition rate is greater than 85%)	5 (Level 5: the growth inhibition rate is greater than 85%)
